Tests used:
CD8+ T cells = assay: CALR9p2(T5F)-tetramer staining and flow cytometry of CD8+ T cells from immunized mice; assay type: in vivo, mouse
C57BL/6J mice = assay: Peptide immunization (Titermax adjuvant) and IFNγ ELISpot of CD8+ T cells from draining lymph nodes; assay type: in vivo, mouse; conditions: for CALR9p2-specific CD8+ T cell response: peptide emulsified in Titermax adjuvant, secondary restimulation with CALR9p2
Experimental: (§1) All peptides were purchased as custom peptide synthesis orders from GenScript at a purity of >98% and resuspend at 10 mg/mL in DMSO (Sigma). For peptide vaccines, peptides were diluted in PBS and emulsified with Titermax® (Titermax USA, Inc) at a 1:1 ratio immediately prior to immunization, such that each dose was composed of 10 μg peptide in a total volume of 25 uL. In control (DMSO) immunization, an equivalent volume of DMSO is substituted for the diluted peptide in the TiterMax® emulsion. For subsequent in vitro assays, draining inguinal and popliteal lymph nodes were collected at indicated time points and CD8+ T cells were isolated using positive magnetic sorting using mouse CD8a (Ly-2) MicroBeads (Miltenyi Biotec). DNA vaccines were performed using a gene gun as previously described (27, 63) according to indicated time points. Briefly, mice received four injections (400 lbs/inch2) of DNA-coated gold particles into the abdominal region of the skin for a total 4 μg of DNA per dose. DNA plasmids encoding the wildtype or 52 base-pair deletion CALRMUT sequences fused with the flag sequence are as previously described (64). For pING-OVA, the full-length chicken ovalbumin sequence was cloned into the pING plasmid (65). CD8+ T cells were collected as before, but only from draining inguinal lymph nodes. To test for antigen-specificity, the mouse IFNγ ELISpot set (BD) was used according to the manufacturer's instructions. Briefly, CD8+ T cells were frozen immediately after purification in FBS containing 10% DMSO, thawed one day prior to restimulation and allowed to recover overnight in 20 U/mL IL-2 (Peprotech) RPMI-1640 medium containing 10% fetal bovine serum (FBS), Na-Pyruvate, L-glutamine and Penicillin/Streptomycin. As a source of antigen-presenting cells (APCs), splenocytes from naïve mice were depleted of T cells using magnetic microbeads for CD8a (Ly2) and CD4 (L3T4) (Miltenyi Biotec), pulsed for one hour with 100 μg/mL peptide at 37° C. followed by a wash. For each well, 105 CD8+ T cells were co-culture with 1×105-3×105 peptide-pulsed APCs and incubated for approximately 18 hours. Spots were counted using the ImmunoSpot analyzer (Cellular Technology Limited).

RMA/SpER-CALR9p2 tumors = assay: Tumor growth experiments with RMA/SpER-CALR9p2 tumors; assay type: in vivo, mouse
Experimental: as §1
RMA/S cells were maintained in RPMI 1640 medium supplemented with 7.5% inactivated FBS, 1×non-essential amino acids and 2 mM L-glutamine. The DNA sequence encoding the CALR9p2 peptide (bold) was cloned into the PresentER-IRES-GFP (38) construct using the following oligo:
following SfiI digestion and T4 ligation (New England Biolabs). The resulting construct was used to generate retrovirus by co-transfection with pCL-Ampho into ecotropic Pheonix cells (ATCC). Viral supernatants were collected at 48 and 72 hours, pooled and Retro-X Concentrator (Takara Bio USA)-concentrated retrovirus was used to transduce RMA/S cells by spinoculation using polybrene (Sigma). GFP-positive cells were FACS sorted (BD FACSAria III) and cultured in 4 μg/mL puromycin (Gibco) media. A total of 5×10^6 cells were injected subcutaneously in the flank of mice. For anti-PD1 treatment, 250 μg of RMP1-14 was injected intra-peritoneally in PBS at indicated time points.

H-2Kb = target: T1, H-2Kb (Mus musculus, UniProt P01901); assay: MHC-I stabilization assay using TAP-deficient RMA/S cells; assay type: cell-based, murine
T1 construct: its ability to stabilize MHC-I in the H-2Kb-expressing TAP-deficient RMA/S cell line; endogenous in cells; host or cells: RMA/S cells (murine, TAP-deficient)
T1 sequence (P01901 22-369): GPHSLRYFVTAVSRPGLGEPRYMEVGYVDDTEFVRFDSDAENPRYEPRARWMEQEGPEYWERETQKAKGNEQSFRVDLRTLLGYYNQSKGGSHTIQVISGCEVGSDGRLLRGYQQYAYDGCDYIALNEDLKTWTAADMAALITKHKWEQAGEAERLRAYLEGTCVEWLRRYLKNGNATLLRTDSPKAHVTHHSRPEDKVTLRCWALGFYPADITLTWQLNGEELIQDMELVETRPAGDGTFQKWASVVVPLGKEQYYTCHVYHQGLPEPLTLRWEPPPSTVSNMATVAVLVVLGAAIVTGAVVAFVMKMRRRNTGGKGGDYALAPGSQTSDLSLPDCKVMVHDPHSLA
T1 sequence (P01887 21-119 partner): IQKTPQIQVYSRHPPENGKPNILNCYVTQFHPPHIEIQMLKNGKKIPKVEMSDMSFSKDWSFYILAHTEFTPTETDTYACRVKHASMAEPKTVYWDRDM
Experimental: (§2) To test peptide binding to murine H-2Kb or human HLA-A*02:01, TAP-deficient RMA/S and T2 cells were used, respectively, as previously reported (59, 60). […] T2 cells (62) were serum-starved in serum-free RPMI media overnight and […] at indicated final concentrations for 16 hours before measuring HLA-A*02:01 levels by flow cytometry (BD; Clone BB7.2). The […] (SEQ ID NO. 287) peptide was acquired as a custom order from Genscript.

peptide-pulsed B16 cells = assay: Killing assay of peptide-pulsed B16 cells by CD8+ T cells isolated from peptide-immunized mice; assay type: cell-based, mouse; conditions: CD8+ T cells from mice immunized with a single dose
[1] = system: PBMCs from healthy HLA-A*02:01 individuals; assay: Human PBMC in vitro restimulation, IFNγ+ CD8+ T cells by intracellular staining; assay type: cell-based; conditions: six healthy donors; significant (P<0.05) or trending (P<0.30)
Experimental: Freshly isolated or thawed cryopreserved healthy donor PBMCs were restimulated with cytokines and peptides as previously described (14). Briefly, on day 0, PBMCs were resuspended in X-VIVO15 media (Lonza) and seeded at 105 per well of a 96 U-bottom plate with 1000 IU/mL GM-CSF (Sanofi), 500 IU/mL IL-4 (R&D Systems) and 50 ng/mL Flt3L (R&D Systems). On day 1, media was refreshed with 0.1 μg/mL LPS (Invivogen), 10 μM R848 (Invivogen), 5 μg/mL IL-10 (R&D Systems) and 1 μg/mL of indicated peptides, and incubated for 24 hours. The CMV, EBV, Flu, Tetanus (CEFT) and the myelin oligodendrocyte glycoprotein (MOG) peptide pools (JPT Technologies) were used as positive and negative controls, respectively. On days 2 and 5, half the media was refreshed with RPMI (Gibco) containing 10% human serum (Gemini Bio-Products), 10 ug/ml gentamycin (Gibco), HEPES (Gibco), GlutaMAX (Gibco) and hIL-2 and hIL-7 to a final concentration of 10 IU/mL and 10 ng/mL, respectively (R&D Systems). On day 8, the media was refreshed without cytokines. On day 10, PBMCs were restimulated with corresponding peptides in the presence of 1 μg/mL of anti-hCD28 and anti-hCD49d (BD Biosciences). As controls, some cells were stimulated with PMA (Sigma-Aldrich, 50 ng/mL) and ionomycin (Sigma-Aldrich, 1 μg/mL). […] Data was acquired using the BD Fortessa and the data was analyzed on FlowJo V10 (TreeStar). […]

HLA-A*02:01 = target: T2, HLA-A*02:01 (Homo sapiens, UniProt P04439, D140Y/D185E/D98H/E176V/E277Q/G131W/G231S/I119V/I121R/I166T/I218V/L300P/L318F/N151K/N90K/P208A/P217A/Q86G/Q94H/R138H/R169H/T345S); assay: MHC-I stabilization assay using human TAP-deficient T2 cells; assay type: cell-based; conditions: flow cytometry
T2 construct: endogenous in cells; host or cells: T2 cells (human, TAP-deficient)
Experimental: as §2

[2] = target: T3, murine H-2Kb on TAP-deficient RMA/S cells (murine, UniProt P01887 21-119; P01901 22-305); assay: H-2Kb stabilization assay on RMA/S cells, flow cytometry
T3 construct: whole, on cells;extracellular; MHC class I molecule; surface level read with antibody clone AF6-88.5 by flow cytometry
T3 sequence (MHC heavy, looked up): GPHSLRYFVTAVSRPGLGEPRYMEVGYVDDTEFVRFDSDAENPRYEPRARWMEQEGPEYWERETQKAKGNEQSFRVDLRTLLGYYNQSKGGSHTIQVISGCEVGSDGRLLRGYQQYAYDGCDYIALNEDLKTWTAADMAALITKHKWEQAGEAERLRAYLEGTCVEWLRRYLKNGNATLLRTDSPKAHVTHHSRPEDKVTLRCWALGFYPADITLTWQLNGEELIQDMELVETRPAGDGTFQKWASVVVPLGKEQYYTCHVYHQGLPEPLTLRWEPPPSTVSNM
T3 sequence (b2m, looked up): T1 sequence (P01887 21-119 partner)

[3] = target: T3, murine H-2Kb on TAP-deficient RMA/S …; assay: H-2Kb stabilization assay on RMA/S cells in absence of serum, flow cytometry
Description: To test peptide binding to murine H-2Kb or human HLA-A*02:01, TAP-deficient RMA/S and T2 cells were used, respectively, as previously reported (59, 60).

[4] = initial CALR9p2(T5F) followed by two CALR9p2 boosts
[5] = two doses of CALR9p2(T5F) and a final CALR9p2 boost
[6] = prophylactic: three doses prior to tumor implantation, vs adjuvant alone
[7] = therapeutic: multiple doses after tumors allowed to grow, vs adjuvant alone

Molecule: RMMRFKMRM [CALR9p2(T5F)]
- IFNγ restimulation by CALR9p2 of CALR9p2(T5F)-tetramer-specific CD8+ T cells (CD8+ T cells; CD8+ T cells from CALR9p2(T5F)-immunized mice): The only CALR9p2-potentiated CD8+ T cells were those also staining for the CALR9p2(T5F)-tetramer
- Tim3 and Pd1 levels of CALR9p2-specific vs CALR9p2(T5F)-specific CD8+ T cells (CD8+ T cells; after restimulation): equal levels of Tim3 and Pd1
- CD8+ T cell response to CALR9p2(T5F) (C57BL/6J mice; [4]): very small response to the CALR9p2(T5F) peptide
- cross-reactive CD8+ T cell response to CALR9p2 (C57BL/6J mice; [4]): no detectable cross-reactive CD8+ T cell responses to CALR9p2 in vitro
- CALR9p2-specific CD8+ T cell response (C57BL/6J mice): elicited a CD8+ T cell capable of cross-reacting with CALR9p2 in vitro
- CD8+ T cell response to CALR9p2(T5F) (C57BL/6J mice; [5]): intermediate response to CALR9p2(T5F)
- cross-reactive CD8+ T cell response to CALR9p2 (C57BL/6J mice; [5]): no detectable cross-reactive CD8+ T cells
- survival (RMA/SpER-CALR9p2 tumors; prophylactic: three doses prior to tumor implantation): differences in survival were not significant
- tumor growth (RMA/SpER-CALR9p2 tumors; [6]): grew significantly slower
- effect of the vaccine (RMA/SpER-CALR9p2 tumors; therapeutic, administered with immune checkpoint blockade using a PD-1 antibody): even more prominent
- survival (RMA/SpER-CALR9p2 tumors; [7]): improved survival
- tumor growth (RMA/SpER-CALR9p2 tumors; [7]): tumors grew significantly slower
- fold H-2Kb stabilization compared to CALR9p2 (H-2Kb; absence of serum): tenfold
- killing of tumor cells pulsed with the CALR9p2 peptide (peptide-pulsed B16 cells): killing tumor cells pulsed with the CALR9p2 peptide

Molecule: RMMRTKMRM [CALR9p2, 9mer CALRMUT peptide starting at position 2, parental native peptide]
- CALR9p2-specific CD8+ T cell response (C57BL/6J mice): did not elicit any CALR9p2-specific CD8+ T cell response
- tumor growth (RMA/SpER-CALR9p2 tumors; [6]): grew at the same rate
- CD8+ T cell responses (IFNγ) to CALR9p2 alone [1]: three of the six healthy donors
- binding to HLA-A*02:01 (stabilization) (HLA-A*02:01): weak binding signal compared to DMSO control
- H-2Kb stabilization (H-2Kb; in the presence of serum): did not elicit detectable H-2Kb stabilization
- H-2Kb stabilization (H-2Kb; serum omitted): poor but still detectable binding
- peptide concentration at which H-2Kb was stabilized (H-2Kb; serum omitted, only the highest concentration): 100 µg/mL

Molecule: SIINFEKL [chicken ovalbumin (OVA)-derived peptide, positive control]
- H-2Kb stabilization (H-2Kb; in the presence of serum): strong binding

Molecule: SIINFEKL (Custom order from Genscript) [chicken ovalbumin (OVA)-derived peptide SIINFEKL]
- binding result [2]: binds

Molecule: RMMRFKMRM (Custom synthetic peptide) [CALR9p2(T5F) heteroclitic peptide (RMMRFKMRM)]
- fold H-2Kb stabilization compared to CALR9p2 [3]: ~10 fold

Source: US20230139506A1, “HETEROCLITIC CANCER VACCINES” (MEMORIAL SLOAN KETTERING CANCER CENTER, priority 2020, published 2023)
